Structures are written as SMILES.

The target in this experiment is T1, PDE4B (Homo sapiens, UniProt Q07343).
T1 construct: hexa-histidine (His6) (N); made in house
T1 sequence (Q07343 330-659 limits assumed, species assumed): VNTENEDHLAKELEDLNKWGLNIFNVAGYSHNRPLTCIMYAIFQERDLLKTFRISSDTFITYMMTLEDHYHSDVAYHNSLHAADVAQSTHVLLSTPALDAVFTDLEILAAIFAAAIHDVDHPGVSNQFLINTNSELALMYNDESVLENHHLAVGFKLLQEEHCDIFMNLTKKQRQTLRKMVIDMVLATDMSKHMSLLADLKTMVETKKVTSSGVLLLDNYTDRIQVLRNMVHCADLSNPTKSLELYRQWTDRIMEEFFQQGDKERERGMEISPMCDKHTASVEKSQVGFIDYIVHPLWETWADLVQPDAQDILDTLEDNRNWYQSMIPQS
Nature of the experiment: PDE4 IMAP Assay. In kind it is biochemical. As to conditions: catalytic domain of PDE4B, fluorescence polarization. The source says: Compounds may be screened for functional potency in in vitro biochemical assays for their ability to inhibit the activity of phosphodiesterase (PDE) enzymes. A commercial PDE assay, Molecular Device's PDE IMAP assay, was modified and utilized to measure the inhibitory activity of compounds on PDE isoforms. The IMAP technology is based on the high affinity binding of phosphate by immobilized metal (MIII) coordination complexes on nanoparticles. This IMAP “binding reagent” complexes with phosphate groups on the nucleotide monophosphates generated in the reaction. Such binding causes a change in the rate of the molecular motion of the nucleotide, and results in an increase in the fluorescence polarization value observed for the fluorescent label attached to the substrate. PDE inhibitors prevent the generation of nucleotide monophosphates and the subsequent increase in polarization value observed for the fluorescent label attached to the substrate. The catalytic domain of PDE4B was fused to an amino-terminus hex-histadine affinity tag and purified. PDE4B enzyme was incubated with compounds for 10 minutes. Fluorescently labeled cyclic AMP substrates were then added to the PDE enzyme mix and incubated for 2 hours at room temperature. IMAP binding reagent was then added to the enzyme mix, incubated for 10-30 minutes and fluorescent polarization of the fluorescently labeled substrate was read either with the Perkin Elmer Viewlux or Molecular Devices Acquest or Analyst. Roflumilast and Rolipram are the positive controls used in the assay.
For orientation: In fluorescence polarisation assays a small probe gives low polarisation when free and higher when bound to something large.
Broadly, the inhibition is the share of the control response that was lost under treatment. The molecule `COc1ccc(C2=NN(C(=O)c3ccc(Br)o3)C(c3ccccc3)C2)cc1OC` (centres unmarked) [Example 51, (5-bromofuran-2-yl)(3-(3,4-dimethoxyphenyl)-5-phenyl-4,5-dihydro-1H-pyrazol-1-yl)methanone] displayed an inhibition at 10 µM of at least 50%.

Molecule `COc1ccc(C2=NN(S(=O)(=O)c3ccc(C)cc3)C(c3ccc(OC)c(OC)c3)C2)cc1OC` (centres unmarked) [Example 87, 3,5-bis(3,4-dimethoxyphenyl)-1-tosyl-4,5-dihydro-1H-pyrazole] registered an inhibition at 10 µM below 50%.

In the case of `CCC(=O)N1N=C(c2ccc(OC)c(OC)c2)CC1c1ccc(CC)cc1` (centres unmarked) [Example 20, 1-(3-(3,4-dimethoxyphenyl)-5-(4-ethylphenyl)-4,5-dihydro-1H-pyrazol-1-yl)propan-1-one], the inhibition at 10 µM was below 50%.

Turning to `COc1ccc(C2=NN(S(=O)(=O)c3ccccc3)C(c3ccccc3)C2)cc1OC` (centres unmarked) [Example 63, 3-(3,4-dimethoxyphenyl)-5-phenyl-1-(phenylsulfonyl)-4,5-dihydro-1H-pyrazole], the inhibition at 10 µM was below 50%.

In turn, `COc1ccc(C2=NN(C(=O)CCCC(=O)O)C(c3ccc(F)cc3)C2)cc1OC` (centres unmarked) [Example 65, 5-(3-(3,4-dimethoxyphenyl)-5-(4-fluorophenyl)-4,5-dihydro-1H-pyrazol-1-yl)-5-oxopentanoic acid] yielded an inhibition at 10 µM below 50%.

`COc1ccc(C2=NN(C(=O)c3ccc(Br)o3)C(c3ccccc3F)C2)cc1OC` (centres unmarked) [Example 49, (5-bromofuran-2-yl)(3-(3,4-dimethoxyphenyl)-5-(2-fluorophenyl)-4,5-dihydro-1H-pyrazol-1-yl)methanone] returned an inhibition at 10 µM of at least 50%.

For the molecule `COc1ccc(C2CC(c3ccc(OC)c(OC)c3)=NN2C(=O)c2cccs2)cc1` (centres unmarked) [Example 41, (3-(3,4-dimethoxyphenyl)-5-(4-methoxyphenyl)-4,5-dihydro-1H-pyrazol-1-yl)(thiophen-2-yl)methanone], the inhibition at 10 µM is at least 50%.

`COc1ccc(C2=NN(S(=O)(=O)c3ccccc3)C(c3ccc(OC)c(OC)c3)C2)cc1OC` (centres unmarked) [Example 86, 3,5-bis(3,4-dimethoxyphenyl)-1-(phenylsulfonyl)-4,5-dihydro-1H-pyrazole] displayed an inhibition at 10 µM of at least 50%.

Consider `COc1ccc(C2=NN(S(C)(=O)=O)C(c3cccs3)C2)cc1OC` (centres unmarked) [Example 2, 3-(3,4-dimethoxyphenyl)-1-(methylsulfonyl)-5-(thiophen-2-yl)-4,5-dihydro-1H-pyrazole], for which the inhibition at 10 µM was below 50%.

`COc1ccc(C2=NN(C(=O)c3ccccc3Cl)C(c3ccccc3F)C2)cc1OC` (centres unmarked) [Example 34, (2-chlorophenyl)(3-(3,4-dimethoxyphenyl)-5-(2-fluorophenyl)-4,5-dihydro-1H-pyrazol-1-yl)methanone] displayed an inhibition at 10 µM of at least 50%.

`COc1ccc(C2=NN(C(=O)c3cc(OC)c(OC)c(OC)c3)C(c3ccc(C)cc3)C2)cc1OC` (centres unmarked) [Example 45, (3-(3,4-dimethoxyphenyl)-5-p-tolyl-4,5-dihydro-1H-pyrazol-1-yl)(3,4,5-trimethoxyphenyl)methanone] showed an inhibition at 10 µM of at least 50%.

The molecule `COc1ccc(C2=NN(C(=O)CCCC(=O)O)C(c3cccs3)C2)cc1OC` (centres unmarked) [Example 1, 5-(3-(3,4-dimethoxyphenyl)-5-(thiophen-2-yl)-4,5-dihydro-1H-pyrazol-1-yl)-5-oxopentanoic acid] returned an inhibition at 10 µM below 50%.

For the molecule `COc1ccc(C2=NN(S(C)(=O)=O)C(c3ccccc3Cl)C2)cc1OC` (centres unmarked) [Example 15, 5-(2-chlorophenyl)-3-(3,4-dimethoxyphenyl)-1-(methylsulfonyl)-4,5-dihydro-1H-pyrazole], the inhibition at 10 µM is below 50%.

As to `COc1ccc(C2=NN(S(=O)(=O)c3ccccc3)C(c3cccc(OC)c3OC)C2)cc1OC` (centres unmarked) [Example 90, 5-(2,3-dimethoxyphenyl)-3-(3,4-dimethoxyphenyl)-1-(phenylsulfonyl)-4,5-dihydro-1H-pyrazole], the inhibition at 10 µM is below 50%.

For `CCc1ccc(C2CC(c3ccc(OC)c(OC)c3)=NN2C(=O)CCCC(=O)O)cc1` (centres unmarked) [Example 18, 5-(3-(3,4-dimethoxyphenyl)-5-(4-ethylphenyl)-4,5-dihydro-1H-pyrazol-1-yl)-5-oxopentanoic acid], the inhibition at 10 µM was below 50%.

`COc1ccc(C2=NN(C(=O)c3ccccc3Cl)C(c3cccc(OC)c3OC)C2)cc1OC` (centres unmarked) [Example 30, (2-chlorophenyl)(5-(2,3-dimethoxyphenyl)-3-(3,4-dimethoxyphenyl)-4,5-dihydro-1H-pyrazol-1-yl)methanone]: the inhibition at 10 µM was below 50%.

Turning to `COc1ccc(C2=NN(S(=O)(=O)c3ccc(C)cc3)C(c3ccc(N(C)C)cc3)C2)cc1OC` (centres unmarked) [Example 85, 4-(3-(3,4-dimethoxyphenyl)-1-tosyl-4,5-dihydro-1H-pyrazol-5-yl)-N,N-dimethylaniline], the inhibition at 10 µM was below 50%.

In the case of `CCc1ccc(C2CC(c3ccc(OC)c(OC)c3)=NN2S(C)(=O)=O)cc1` (centres unmarked) [Example 12, 3-(3,4-dimethoxyphenyl)-5-(4-ethylphenyl)-1-(methylsulfonyl)-4,5-dihydro-1H-pyrazole], the inhibition at 10 µM is below 50%.

On to `COc1ccc(C2=NN(S(C)(=O)=O)C(c3cccc(OC)c3OC)C2)cc1OC` (centres unmarked) [Example 11, 5-(2,3-dimethoxyphenyl)-3-(3,4-dimethoxyphenyl)-1-(methylsulfonyl)-4,5-dihydro-1H-pyrazole], for which the inhibition at 10 µM is below 50%.

Consider `COc1ccc(C2=NN(C(=O)c3ccc(Br)o3)C(c3cccc(OC)c3OC)C2)cc1OC` (centres unmarked) [Example 84, (5-bromofuran-2-yl)(5-(2,3-dimethoxyphenyl)-3-(3,4-dimethoxyphenyl)-4,5-dihydro-1H-pyrazol-1-yl)methanone], for which the inhibition at 10 µM is below 50%.

For `COc1ccc(C2=NN(C(=O)CCC(=O)O)C(c3ccc(OC)c(OC)c3)C2)cc1OC` (centres unmarked) [Example 68, 4-(3,5-bis(3,4-dimethoxyphenyl)-4,5-dihydro-1H-pyrazol-1-yl)-4-oxobutanoic acid], the inhibition at 10 µM was below 50%.

Take `COc1ccc(C2CC(c3ccc(OC)c(OC)c3)=NN2S(C)(=O)=O)cc1` (centres unmarked) [Example 14, 3-(3,4-dimethoxyphenyl)-5-(4-methoxyphenyl)-1-(methylsulfonyl)-4,5-dihydro-1H-pyrazole]: the inhibition at 10 µM is below 50%.

Regarding `COc1ccc(C2=NN(C(=O)c3cc(OC)c(OC)c(OC)c3)C(c3ccccc3OC)C2)cc1OC` (centres unmarked) [Example 80, (3-(3,4-dimethoxyphenyl)-5-(2-methoxyphenyl)-4,5-dihydro-1H-pyrazol-1-yl)(3,4,5-trimethoxyphenyl)methanone], the inhibition at 10 µM was below 50%.

Take `COc1ccc(C2=NN(C(=O)c3ccc(Br)o3)C(c3ccccc3Cl)C2)cc1OC` (centres unmarked) [Example 50, (5-bromofuran-2-yl)(5-(2-chlorophenyl)-3-(3,4-dimethoxyphenyl)-4,5-dihydro-1H-pyrazol-1-yl)methanone]: the inhibition at 10 µM is below 50%.

Molecule `COc1ccc2cc(C3CC(c4ccc(OC)c(OC)c4)=NN3C(=O)c3ccccc3Cl)c(Cl)nc2c1` (centres unmarked) [Example 16, (5-(2-chloro-7-methoxyquinolin-3-yl)-3-(3,4-dimethoxyphenyl)-4,5-dihydro-1H-pyrazol-1-yl)(2-chlorophenyl)methanone] came in with an inhibition at 10 µM below 50%.

`CCC(=O)N1N=C(c2ccc(OC)c(OC)c2)CC1c1cc2cc(OC)ccc2nc1Cl` (centres unmarked) [Example 8, 1-(5-(2-chloro-6-methoxyquinolin-3-yl)-3-(3,4-dimethoxyphenyl)-4,5-dihydro-1H-pyrazol-1-yl)propan-1-one]: the inhibition at 10 µM is below 50%.

Consider `COc1ccc(C2=NN(C(=O)c3ccccc3Cl)C(c3cn(-c4ccccc4)nc3-c3ccccc3)C2)cc1OC` (centres unmarked) [Example 26, (2-chlorophenyl)(3-(3,4-dimethoxyphenyl)-5-(1,3-diphenyl-1H-pyrazol-4-yl)-4,5-dihydro-1H-pyrazol-1-yl)methanone], for which the inhibition at 10 µM was below 50%.

For `COc1ccc(C2=NN(S(=O)(=O)c3ccccc3)C(c3cn(-c4ccccc4)nc3-c3ccccc3)C2)cc1OC` (centres unmarked) [Example 25, 4-(3-(3,4-dimethoxyphenyl)-1-(phenylsulfonyl)-4,5-dihydro-1H-pyrazol-5-yl)-1,3-diphenyl-1H-pyrazole], the inhibition at 10 µM was below 50%.

On to `COc1ccc(C2=NN(C(=O)c3cccs3)C(c3ccccc3Cl)C2)cc1OC` (centres unmarked) [Example 39, (5-(2-chlorophenyl)-3-(3,4-dimethoxyphenyl)-4,5-dihydro-1H-pyrazol-1-yl)(thiophen-2-yl)methanone], for which the inhibition at 10 µM is below 50%.

In turn, `COc1ccc(C2=NN(C(=O)CCC(=O)O)C(c3cc4ccccc4nc3Cl)C2)cc1OC` (centres unmarked) [Example 27, 4-(5-(2-chloroquinolin-3-yl)-3-(3,4-dimethoxyphenyl)-4,5-dihydro-1H-pyrazol-1-yl)-4-oxobutanoic acid] returned an inhibition at 10 µM below 50%.

As to `COc1ccc(C2=NN(C(=O)CCCC(=O)O)C(c3cccc(OC)c3OC)C2)cc1OC` (centres unmarked) [Example 94, 5-(5-(2,3-dimethoxyphenyl)-3-(3,4-dimethoxyphenyl)-4,5-dihydro-1H-pyrazol-1-yl)-5-oxopentanoic acid], the inhibition at 10 µM was below 50%.

Regarding `COc1ccc(C2=NN(C(C)=O)C(c3cc4ccc(C)cc4nc3Cl)C2)cc1OC` (centres unmarked) [Example 75, 1-(5-(2-chloro-7-methylquinolin-3-yl)-3-(3,4-dimethoxyphenyl)-4,5-dihydro-1H-pyrazol-1-yl)ethanone], the inhibition at 10 µM is below 50%.
